According to PMC10122661 (2023):

Key:
[1] = system: riboSAM (full-length SAM-VI riboswitch, 95 nt) (RNA, riboswitch) GGGAAGAAAUAACAAUCAACGACGUAUCAUUGUGCCUCGCUUUCCGCGGGGCGAUAAGUCCUGAAGAAAGGGAUGAUAUGACAUAAGAACAUCGG …; experiment: ITC; details: 100 mM KCl, 10 mM MgCl2; 40 mM HEPES, pH 7.5, room temperature; 45 μM RNA
[2] = system: 15N-16U24G-riboSAM hybridized with 21 nt-DNA (DNA:RNA, riboswitch) GGGAAGAAAUAACAAUCAACGACGUAUCAUUGUGCCUCGCUUUCCGCGGGGCGAUAAGUCCUGAAGAAAGGGAUGAUAUGACAUAAGAACAUCGG/CCGATGTTCTTATGTCATATC; experiment: 1H15N-HSQC NMR; details: 25 mM K2HPO4, 50 mM KCl, 2 mM MgCl2; pH 6.5; 0.5 mM SAM, 0.5 mM RNA; 3' end blocked by 21-nt DNA
[3] = system: 15N-16U24G-riboSAM (RNA, riboswitch) GGGAAGAAAUAACAAUCAACGACGUAUCAUUGUGCCUCGCUUUCCGCGGGGCGAUAAGUCCUGAAGAAAGGGAUGAUAUGACAUAAGAACAUCGG; experiment: 1H15N-HSQC NMR; details: 25 mM K2HPO4, 50 mM KCl, 2 mM MgCl2; pH 6.5, 25 or 37 °C; 0.5 mM RNA, 0.5 mM SAM
[4] = system: 2AP-mutant (riboSAM mutant, P0 helix disrupted) (RNA, riboswitch, 2-aminopurine at 59 (replaces U59)) GGGAAGAAAUAUGCCUCAACGACGUAUCAUUGUGCCUCGCUUUCCGCGGGGCGAUAAGACCUGAAGAAAGGGAUGAUAUGACAUAAGAACAUCGG; experiment: steady-state 2AP fluorescence titration; details: 100 mM KCl, 2 mM MgCl2; 10 mM HEPES, pH 7.5, room temperature; 0.5 μM RNA; apparent
[5] = system: 2AP-riboSAM (RNA, riboswitch, 2-aminopurine at 59 (replaces U59)) GGGAAGAAAUAACAAUCAACGACGUAUCAUUGUGCCUCGCUUUCCGCGGGGCGAUAAGACCUGAAGAAAGGGAUGAUAUGACAUAAGAACAUCGG; experiment: stopped-flow 2AP fluorescence; details: 100 mM KCl, 2 mM MgCl2; 10 mM HEPES, pH 7.5, room temperature; 0.5 μM RNA
[6] = system: 2AP-riboSAM (RNA, riboswitch, 2-aminopurine at 59 (replaces U59)) GGGAAGAAAUAACAAUCAACGACGUAUCAUUGUGCCUCGCUUUCCGCGGGGCGAUAAGACCUGAAGAAAGGGAUGAUAUGACAUAAGAACAUCGG; experiment: steady-state 2AP fluorescence titration; details: 100 mM KCl, 2 mM MgCl2; 10 mM HEPES, pH 7.5, room temperature; 0.5 μM RNA; apparent
[7] = system: 2AP-mutant (riboSAM mutant, P0 helix disrupted) (RNA, riboswitch, 2-aminopurine at 59 (replaces U59)) GGGAAGAAAUAUGCCUCAACGACGUAUCAUUGUGCCUCGCUUUCCGCGGGGCGAUAAGACCUGAAGAAAGGGAUGAUAUGACAUAAGAACAUCGG; experiment: stopped-flow 2AP fluorescence; details: 100 mM KCl, 2 mM MgCl2; 10 mM HEPES, pH 7.5, room temperature; 0.5 μM RNA
[8] = system: 15N-25U32G-riboSAM hybridized with 19 nt-DNA (DNA:RNA, riboswitch) GGGAAGAAAUAACAAUCAACGACGUAUCAUUGUGCCUCGCUUUCCGCGGGGCGAUAAGUCCUGAAGAAAGGGAUGAUAUGACAUAAGAACAUCGG/CCGATGTTCTTATGTCATA; experiment: 1H15N-HSQC NMR; details: 25 mM K2HPO4, 50 mM KCl, 2 mM MgCl2; pH 6.5; 3' end blocked by 19-nt DNA

C[S+](CC[C@H](N)C(=O)O)C[C@H]1O[C@@H](n2cnc3c(N)ncnc32)[C@H](O)[C@@H]1O (some centres unmarked)
Kd [1]: 1.03 ± 0.23 µM
binding [2]: no
binding [3]: yes
Kd [4]: ~ 11.861 ± 0.341 μM
Kon [5]: 5690 ± 83 M⁻¹ s⁻¹
Kd [6]: 9.650 ± 0.065 µM
Kon [7]: 4480 ± 51 M⁻¹ s⁻¹
binding [8]: yes
